Experimental data reported in US8901313B2, “6,5-heterocyclic propargylic alcohol compounds and uses therefor” (Genentech, Inc., priority 2011, dated 2014).
pKi: −log10 of the molar value.

Each compound was assayed against T1, nuclear factor-kappa B (NF-kB)-inducing kinase (NIK) (Homo sapiens, UniProt Q99558) (assay: NIK Enzyme Inhibition Assay (Transcreener ADP assay)). Conditions: purified NIK 0.2-1 nM, 10 uM ATP, fluorescence polarization, Morrison's quadratic equation; read-out: inhibitory value (Ki) for NIK.
T1 construct: made in house; host or cells: baculovirus-infected insect cells
Assay type: biochemical

T1 sequence (Q99558 whole entry): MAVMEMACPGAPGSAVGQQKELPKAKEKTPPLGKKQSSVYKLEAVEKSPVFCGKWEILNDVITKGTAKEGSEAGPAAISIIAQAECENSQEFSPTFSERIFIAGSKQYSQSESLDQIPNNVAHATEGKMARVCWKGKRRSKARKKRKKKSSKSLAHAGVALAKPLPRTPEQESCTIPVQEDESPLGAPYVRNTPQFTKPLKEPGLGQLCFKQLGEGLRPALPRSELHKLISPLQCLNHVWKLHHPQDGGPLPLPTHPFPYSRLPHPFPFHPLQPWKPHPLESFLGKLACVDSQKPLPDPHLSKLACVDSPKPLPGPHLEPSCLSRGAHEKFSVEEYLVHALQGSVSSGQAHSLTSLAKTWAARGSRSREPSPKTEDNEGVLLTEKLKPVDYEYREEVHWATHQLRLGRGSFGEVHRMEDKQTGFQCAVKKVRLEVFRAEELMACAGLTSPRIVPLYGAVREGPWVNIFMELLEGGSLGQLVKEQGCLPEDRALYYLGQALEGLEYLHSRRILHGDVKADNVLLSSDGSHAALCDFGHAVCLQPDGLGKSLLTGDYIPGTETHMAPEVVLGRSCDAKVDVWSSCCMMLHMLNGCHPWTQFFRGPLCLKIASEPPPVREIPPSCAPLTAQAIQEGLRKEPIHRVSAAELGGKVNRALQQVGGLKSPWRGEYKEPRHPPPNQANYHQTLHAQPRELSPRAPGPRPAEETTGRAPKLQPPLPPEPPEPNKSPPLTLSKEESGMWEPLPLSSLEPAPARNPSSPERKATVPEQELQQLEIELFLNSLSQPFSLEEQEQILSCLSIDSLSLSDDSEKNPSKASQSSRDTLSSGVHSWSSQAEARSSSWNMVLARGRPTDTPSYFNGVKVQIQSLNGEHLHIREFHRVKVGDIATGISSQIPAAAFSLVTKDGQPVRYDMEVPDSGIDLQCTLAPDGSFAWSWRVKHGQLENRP

Row | SMILES | pKi
1 | CC(O)(C#Cc1ccc2c(C(=O)N3CCOCC3)nn(-c3ccnc(N)n3)c2c1)CF (centres unmarked) [Example T1.1-75, [1-(2-aminopyrimidin-4-yl)-6-(4-fluoro-3-hydroxy-3-methyl-but-1-ynyl)indazol-3-yl]-morpholino-methanone] | 7.85
2 | CC(O)(C#Cc1ccc2c(CN3CCOCC3)nn(-c3ccnc(N)n3)c2c1)c1ncccn1 (centres unmarked) [Example T1.1-78, 4-[1-(2-aminopyrimidin-4-yl)-3-(morpholinomethyl)indazol-6-yl]-2-pyrimidin-2-yl-but-3-yn-2-ol] | 7.70
3 | COCc1cc(C(C)(O)C#Cc2ccc3c(C(=O)N4CCOCC4)nn(-c4ccnc(N)n4)c3c2)no1 (centres unmarked) [Example T1.1-84, [1-(2-aminopyrimidin-4-yl)-6-[3-hydroxy-3-[5-(methoxymethyl)isoxazol-3-yl]but-1-ynyl]indazol-3-yl]-morpholino-methanone] | 7.57
4 | Nc1nccc(-n2nc(C(=O)N3CCOCC3)c3ccc(C#CC(O)(CF)CF)cc32)n1 [Example T1.1-86, [1-(2-aminopyrimidin-4-yl)-6-[4-fluoro-3-(fluoromethyl)-3-hydroxy-but-1-ynyl]indazol-3-yl]-morpholino-methanone] | 7.51
5 | Cn1cc(-c2cnc(N)nc2-n2ncc3ccc(C#CC(C)(C)O)cc32)cn1 [Example T1.1-87, 4-[1-[2-amino-5-(1-methyl-pyrazol-4-yl)pyrimidin-4-yl]indazol-6-yl]-2-methyl-but-3-yn-2-ol] | 7.41
6 | CN1CCN(C(=O)c2nn(-c3ccnc(N)n3)c3cc(C#CC(C)(O)c4ncccn4)ccc23)CC1 (centres unmarked) [Example T1.1-89, [1-(2-aminopyrimidin-4-yl)-6-(3-hydroxy-3-pyrimidin-2-yl-but-1-ynyl)indazol-3-yl]-(4-methylpiperazin-1-yl)methanone] | 7.28
7 | CC(C)(O)C#Cc1ccc2cnn(-c3nc(N)ncc3-c3cn[nH]c3)c2c1 [Example T1.1-92, 4-[1-[2-amino-5-(1H-pyrazol-4-yl)pyrimidin-4-yl]indazol-6-yl]-2-methyl-but-3-yn-2-ol] | 7.15
8 | CC(C)(O)C#Cc1ccc2nc(OC3COC3)n(-c3ccnc(N)n3)c2c1 [Example T1.1-96, 4-[3-(2-aminopyrimidin-4-yl)-2-(oxetan-3-yloxy)benzimidazol-5-yl]-2-methyl-but-3-yn-2-ol] | 7.00
9 | Cc1cc(C(C)(O)C#Cc2ccc3nc(OC4CN(CCO)C4)n(-c4ccnc(N)n4)c3c2)no1 (centres unmarked) [Example T1.1-97, 4-[3-(2-aminopyrimidin-4-yl)-2-[1-(2-hydroxyethyl)azetidin-3-yl]oxy-benzimidazol-5-yl]-2-(5-methyl-isoxazol-3-yl)but-3-yn-2-ol] | 6.99
10 | Cc1nc2ccc(C#CC(C)(O)CC3CC3)cc2n1-c1ncnc(N)n1 (centres unmarked) [Example T1.1-99, 4-[3-(4-amino-1,3,5-triazin-2-yl)-2-methyl-benzimidazol-5-yl]-1-cyclopropyl-2-methyl-but-3-yn-2-ol] | 6.89
11 | Cc1nc2ccc(C#CC(C)(O)CO)cc2n1-c1ncnc(N)n1 (centres unmarked) [Example T1.1-100, 4-[3-(4-amino-1,3,5-triazin-2-yl)-2-methyl-benzimidazol-5-yl]-2-methyl-but-3-yne-1,2-diol] | 6.89
12 | Cc1cc(C(C)(O)C#Cc2ccc3nc(C(=O)N4CCCC4)n(-c4ccnc(N)n4)c3c2)no1 (centres unmarked) [Example T1.1-104, [1-(2-aminopyrimidin-4-yl)-6-[3-hydroxy-3-(5-methylisoxazol-3-yl)but-1-ynyl]benzimidazol-2-yl]-pyrrolidin-1-yl-methanone] | 6.47
13 | Cc1nc2ccc(C#CC3(O)CCCCC3)cc2n1-c1ncnc(N)n1 [Example T1.1-106, 1-[2-[3-(4-amino-1,3,5-triazin-2-yl)-2-methyl-benzimidazol-5-yl]ethynyl]cyclohexanol] | 6.11
14 | Cc1nc2ccc(C#CC3(CO)CCCC3)cc2n1-c1ncnc(N)n1 [Example T1.1-107, [1-[2-[3-(4-amino-1,3,5-triazin-2-yl)-2-methyl-benzimidazol-5-yl]ethynyl]cyclopentyl]methanol] | 6.04
15 | CC(O)(C#Cc1ccc2nc(OCCO)n(-c3ccnc(N)n3)c2c1)c1ccc(F)cn1 (centres unmarked) [Example T1.1-108, 4-[3-(2-aminopyrimidin-4-yl)-2-(2-hydroxyethoxy)benzimidazol-5-yl]-2-(5-fluoro-2-pyridyl)but-3-yn-2-ol] | 5.80
16 | Cc1nc2ccc(C#CC(O)C3CC(O)C3)cc2n1-c1ncnc(N)n1 (centres unmarked) [Example T1.1-109, 3-[3-[3-(4-amino-1,3,5-triazin-2-yl)-2-methyl-benzimidazol-5-yl]-1-hydroxy-prop-2-ynyl]cyclobutanol] | 5.80
17 | Cc1nc2ccc(C#CC3(O)CC4CCC3C4)cc2n1-c1ncnc(N)n1 (centres unmarked) [Example T1.1-110, 2-[2-[3-(4-amino-1,3,5-triazin-2-yl)-2-methyl-benzimidazol-5-yl]ethynyl] norbornan-2-ol] | 5.77
18 | Cc1nc2ccc(C#CC(C)(O)c3nc(CO)cs3)cc2n1-c1ncnc(N)n1 (centres unmarked) [Example T1.1-111, 4-[3-(4-amino-1,3,5-triazin-2-yl)-2-methyl-benzimidazol-5-yl]-2-[4-(hydroxy-methyl)thiazol-2-yl]but-3-yn-2-ol] | 5.77

Other lines, results leading:

Row | pKi | SMILES
19 | 7.89 | CC1CN(C(=O)c2nn(-c3ccnc(N)n3)c3cc(C#CC(C)(O)c4ncccn4)ccc23)CC(C)O1 (centres unmarked) [Example T1.1-74, [1-(2-aminopyrimidin-4-yl)-6-(3-hydroxy-3-pyrimidin-2-yl-but-1-ynyl)indazol-3-yl]-(2,6-dimethylmorpholin-4-yl) methanone]
20 | 7.80 | Cc1nn(-c2ccnc(N)n2)c2cc(C#CC(C)(O)c3cocn3)ccc12 (centres unmarked) [Example T1.1-76, 4-[1-(2-aminopyrimidin-4-yl)-3-methyl-indazol-6-yl]-2-oxazol-4-yl-but-3-yn-2-ol]
21 | 7.70 | Cc1cc(C(C)(O)C#Cc2ccc3c(C(NC4CCCC4)C4CC4)nn(-c4ccnc(N)n4)c3c2)no1 (centres unmarked) [Example T1.1-79, 4-[1-(2-aminopyrimidin-4-yl)-3-[(cyclopentylamino)-cyclopropyl-methyl]indazol-6-yl]-2-(5-methyl-isoxazol-3-yl)but-3-yn-2-ol]
22 | 7.62 | Cc1nc([C@](C)(O)C#Cc2ccc3c(c2)n(-c2ccnc(N)n2)c(=O)n3CC2CC2)no1 [Example T1.1-81, 3-(2-aminopyrimidin-4-yl)-1-(cyclopropylmethyl)-5-[(3R)-3-hydroxy-3-(5-methyl-1,2,4-oxadiazol-3-yl)but-1-ynyl] benzimidazol-2-one]
23 | 7.60 | Cc1noc(C(C)(O)C#Cc2ccc3c(C(=O)N(C)C)nn(-c4ccnc(N)n4)c3c2)n1 (centres unmarked) [Example T1.1-82, 1-(2-aminopyrimidin-4-yl)-6-[3-hydroxy-3-(3-methyl-1,2,4-oxadiazol-5-yl)but-1-ynyl]-N,N-dimethyl-indazole-3-carboxamide]
24 | 7.60 | Cn1cnc(C(C)(O)C#Cc2ccc3c(C(=O)N4CCOCC4)nn(-c4ccnc(N)n4)c3c2)n1 (centres unmarked) [Example T1.1-83, [1-(2-aminopyrimidin-4-yl)-6-[3-hydroxy-3-(1-methyl-1,2,4-triazol-3-yl)but-1-ynyl]indazol-3-yl]-morpholino-methanone]
25 | 7.57 | Cc1cc(C(C)(O)C#Cc2ccc3c(C(NC4CCCC4)C4CC4)nn(-c4ccnc(N)n4)c3c2)no1 (centres unmarked) [Example T1.1-85, 4-[1-(2-aminopyrimidin-4-yl)-3-[(cyclopentylamino)-cyclopropyl-methyl]indazol-6-yl]-2-(5-methyl-isoxazol-3-yl)but-3-yn-2-ol]
26 | 7.34 | Cc1cc([C@@](C)(O)C#Cc2ccc3c(C(=O)N4CCOCC4)nn(-c4ccnc(N)n4)c3c2)no1 [Example T1.1-88, [1-(2-aminopyrimidin-4-yl)-6-[(3S)-3-hydroxy-3-(5-methylisoxazol-3-yl)but-1-ynyl]indazol-3-yl]-morpholino-methanone]
27 | 7.27 | Cc1nn(-c2ccnc(N)n2)c2cc(C#CC(C)(O)c3nccn3C)ccc12 (centres unmarked) [Example T1.1-90, 4-[1-(2-aminopyrimidin-4-yl)-3-methyl-indazol-6-yl]-2-(1-methyl-imidazol-2-yl)but-3-yn-2-ol]
28 | 7.16 | Cc1cnc(C(C)(O)C#Cc2ccc3c(C)nn(-c4ccnc(N)n4)c3c2)cn1 (centres unmarked) [Example T1.1-91, 4-[1-(2-aminopyrimidin-4-yl)-3-methyl-indazol-6-yl]-2-(5-methyl-pyrazin-2-yl)but-3-yn-2-ol]
29 | 7.11 | Cc1cc(-n2nc(C)c3ccc(C#C[C@@](C)(O)c4noc(C)n4)cc32)nc(N)n1 [Example T1.1-93, (2R)-4-[1-(2-amino-6-methyl-pyrimidin-4-yl)-3-methyl-indazol-6-yl]-2-(5-methyl-1,2,4-oxadiazol-3-yl)but-3-yn-2-ol]
30 | 7.07 | Cc1cc(-n2nc(C)c3ccc(C#CC(C)(O)c4ncccn4)cc32)nc(N)n1 (centres unmarked) [Example T1.1-94, 4-[1-(2-amino-6-methyl-pyrimidin-4-yl)-3-methyl-indazol-6-yl]-2-pyrimidin-2-yl-but-3-yn-2-ol]
31 | 7.06 | Cn1ccc(C(C)(O)C#Cc2ccc3c(C(C)(C)O)nn(-c4ccnc(N)n4)c3c2)n1 (centres unmarked) [Example T1.1-95, 4-[1-(2-aminopyrimidin-4-yl)-3-(1-hydroxy-1-methyl-ethyl)indazol-6-yl]-2-(1-methylpyrazol-3-yl)but-3-yn-2-ol]
32 | 6.95 | Cc1nn(-c2ccnc(N)n2)c2cc(C#CC(C)(O)c3ncc[nH]3)ccc12 (centres unmarked) [Example T1.1-98, 4-[1-(2-aminopyrimidin-4-yl)-3-methyl-indazol-6-yl]-2-(1H-imidazol-2-yl)but-3-yn-2-ol]
33 | 6.82 | CNc1nccc(-n2ncc3ccc(C#C[C@@](C)(O)c4cc(C)on4)cc32)n1 [Example T1.1-101, (2R)-4-[1-[2-(methylamino)pyrimidin-4-yl]indazol-6-yl]-2-(5-methylisoxazol-3-yl)but-3-yn-2-ol]
34 | 6.51 | Cc1nn(-c2ccnc(N)n2)c2cc(C#CC(C)(O)C(=O)N3CC(O)C3)ccc12 (centres unmarked) [Example T1.1-102, 4-[1-(2-aminopyrimidin-4-yl)-3-methyl-indazol-6-yl]-2-hydroxy-1-(3-hydroxyazetidin-1-yl)-2-methyl-but-3-yn-1-one]
35 | 6.50 | Cc1nn(-c2ccnc(N)n2)c2cc(C#CC(C)(O)C(=O)N(C)C)ccc12 (centres unmarked) [Example T1.1-103, 4-[1-(2-aminopyrimidin-4-yl)-3-methyl-indazol-6-yl]-2-hydroxy-N,N,2-trimethyl-but-3-ynamide]
